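Growth conditions: 96-well plates. Treatment: test compound, 48 hours, 5 concentrations. Analysis: linear interpolation between bracketing concentrations; unreached endpoints set to highest concentration. GI50 is the concentration that inhibits growth by half.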 Active and inactive are the calls of the source. Cut-off read from the data, not from the text of the source: active = GI50 up to about 1.1 µM and inactive = higher.
Tests used:
Assay in all cases: NCI-60 cell line screen, 48 h
HCC 2998 = test system: HCC 2998
Malme-3M = test system: Malme-3M
MOLT-4 = test system: MOLT-4
RPMI-8226 = test system: RPMI-8226
LXFL 529 = test system: LXFL 529
DLD-1 = test system: DLD-1
DU-145 = test system: DU-145
BT-549 = test system: BT-549
OVCAR-3 = test system: OVCAR-3
SF-539 = test system: SF-539
U-251 = test system: U-251
MDA-N = test system: MDA-N
HCT-15 = test system: HCT-15
SNB-78 = test system: SNB-78
EKVX = test system: EKVX
CCRF-CEM = test system: CCRF-CEM
MDA-MB-435 = test system: MDA-MB-435
NCI-H522 = test system: NCI-H522
786-0 = test system: 786-0
HOP-18 = test system: HOP-18
KM12 = test system: KM12
HOP-92 = test system: HOP-92
SF-295 = test system: SF-295
LOX IMVI = test system: LOX IMVI
SNB-19 = test system: SNB-19
UACC-62 = test system: UACC-62
SF-268 = test system: SF-268
A498 = test system: A498
OVCAR-4 = test system: OVCAR-4
TK-10 = test system: TK-10
UO-31 = test system: UO-31
Hs-578T = test system: Hs-578T
RXF 631 = test system: RXF 631
DMS-273 = test system: DMS-273
SK-OV-3 = test system: SK-OV-3
OVCAR-5 = test system: OVCAR-5
K562 = test system: K562
SNB-75 = test system: SNB-75
A549 = test system: A549
SK-MEL-5 = test system: SK-MEL-5
MDA-MB-231 = test system: MDA-MB-231
NCI-H460 = test system: NCI-H460
PC-3 = test system: PC-3
SK-MEL-2 = test system: SK-MEL-2
XF498 = test system: XF498
HCT-116 = test system: HCT-116
HT-29 = test system: HT-29
NCI-H226 = test system: NCI-H226
KM-20L2 = test system: KM-20L2
SR = test system: SR
HL-60 = test system: HL-60
HOP-62 = test system: HOP-62
SN12C = test system: SN12C
COLO 205 = test system: COLO 205
RXF 393 = test system: RXF 393
ACHN = test system: ACHN
M14 = test system: M14
NCI-H23 = test system: NCI-H23
IGROV-1 = test system: IGROV-1
OVCAR-8 = test system: OVCAR-8
DMS-114 = test system: DMS-114
SW-620 = test system: SW-620
CAKI-1 = test system: CAKI-1
SK-MEL-28 = test system: SK-MEL-28
T47D = test system: T47D
UACC-257 = test system: UACC-257
M19-MEL = test system: M19-MEL

Cc1cc(NCCCCCCCNc2cc(C)nc3cc([N+](=O)[O-])ccc23)c2ccc([N+](=O)[O-])cc2n1
GI50 (HCC 2998): 11.1 µM (inactive)
GI50 (Malme-3M): 29.6 µM (inactive)
GI50 (MOLT-4): 1.9 µM (inactive)
GI50 (RPMI-8226): 1.87 µM (inactive)
GI50 (LXFL 529): 1.56 µM (inactive)
GI50 (DLD-1): 1.82 µM (inactive)
GI50 (DU-145): 3.08 µM (inactive)
GI50 (BT-549): 20 µM (inactive)
GI50 (OVCAR-3): 4.38 µM (inactive)
GI50 (SF-539): 8.63 µM (inactive)
GI50 (U-251): 4.28 µM (inactive)
GI50 (MDA-N): 1.78 µM (inactive)
GI50 (HCT-15): 2.55 µM
GI50 (SNB-78): 15.9 µM (inactive)
GI50 (EKVX): 15.2 µM (inactive)
GI50 (CCRF-CEM): 2.04 µM (inactive)
GI50 (MDA-MB-435): 11.7 µM (inactive)
GI50 (NCI-H522): 1.61 µM (inactive)
GI50 (786-0): 4.8 µM (inactive)
GI50 (HOP-18): 17.3 µM (inactive)
GI50 (KM12): 1.85 µM (inactive)
GI50 (HOP-92): 16.5 µM (inactive)
GI50 (SF-295): 5.9 µM (inactive)
GI50 (LOX IMVI): 2 µM (inactive)
GI50 (SNB-19): 10.3 µM (inactive)
GI50 (UACC-62): 16.6 µM (inactive)
GI50 (SF-268): 2.4 µM (inactive)
GI50 (A498): 10.8 µM (inactive)
GI50 (OVCAR-4): 2 µM (inactive)
GI50 (TK-10): 17.7 µM (inactive)
GI50 (UO-31): 13.9 µM (inactive)
GI50 (Hs-578T): 1.86 µM (inactive)
GI50 (RXF 631): 7.93 µM (inactive)
GI50 (DMS-273): 4.29 µM (inactive)
GI50 (SK-OV-3): 24.9 µM (inactive)
GI50 (OVCAR-5): 15.6 µM (inactive)
GI50 (K562): 1.28 µM (inactive)
GI50 (SNB-75): 11.2 µM (inactive)
GI50 (A549): 3.69 µM (inactive)
GI50 (SK-MEL-5): 6.43 µM (inactive)
GI50 (MDA-MB-231): 2.47 µM (inactive)
GI50 (NCI-H460): 2.04 µM (inactive)
GI50 (PC-3): 13.5 µM (inactive)
GI50 (SK-MEL-2): 24.7 µM (inactive)
GI50 (XF498): 13.7 µM (inactive)
GI50 (HCT-116): 1.69 µM (inactive)
GI50 (HT-29): 2.53 µM (inactive)
GI50 (NCI-H226): 18 µM (inactive)
GI50 (KM-20L2): 10.8 µM (inactive)
GI50 (SR): 1.53 µM (inactive)
GI50 (HL-60): 0.451 µM (active)
GI50 (HOP-62): 20.5 µM (inactive)
GI50 (SN12C): 4 µM (inactive)
GI50 (COLO 205): 9.23 µM (inactive)
GI50 (RXF 393): 8.18 µM (inactive)
GI50 (ACHN): 12.7 µM (inactive)
GI50 (M14): 10.7 µM (inactive)
GI50 (NCI-H23): 5.18 µM (inactive)
GI50 (IGROV-1): 9.44 µM (inactive)
GI50 (OVCAR-8): 1.87 µM (inactive)
GI50 (DMS-114): 1.38 µM (inactive)
GI50 (SW-620): 2.1 µM (inactive)
GI50 (CAKI-1): 23.7 µM (inactive)
GI50 (SK-MEL-28): 4.34 µM (inactive)
GI50 (T47D): 3.52 µM (inactive)
GI50 (UACC-257): 15.1 µM (inactive)
GI50 (M19-MEL): 12.4 µM (inactive)

From ChEMBL document CHEMBL1201862, “PubChem BioAssay data set” (2004)
